Assay results from the kinase profiling compilation of Christmann-Franck et al. (2016).

Each compound was assayed against BRSK2 (human) (UniProt Q8IWQ3) (assay: radiometric filter-binding kinase assay, Kinase HotSpot). Details: compound 0.5 µM; ATP 10 µM.
Sequence of BRSK2 (human) (Q8IWQ3 whole entry, looked up): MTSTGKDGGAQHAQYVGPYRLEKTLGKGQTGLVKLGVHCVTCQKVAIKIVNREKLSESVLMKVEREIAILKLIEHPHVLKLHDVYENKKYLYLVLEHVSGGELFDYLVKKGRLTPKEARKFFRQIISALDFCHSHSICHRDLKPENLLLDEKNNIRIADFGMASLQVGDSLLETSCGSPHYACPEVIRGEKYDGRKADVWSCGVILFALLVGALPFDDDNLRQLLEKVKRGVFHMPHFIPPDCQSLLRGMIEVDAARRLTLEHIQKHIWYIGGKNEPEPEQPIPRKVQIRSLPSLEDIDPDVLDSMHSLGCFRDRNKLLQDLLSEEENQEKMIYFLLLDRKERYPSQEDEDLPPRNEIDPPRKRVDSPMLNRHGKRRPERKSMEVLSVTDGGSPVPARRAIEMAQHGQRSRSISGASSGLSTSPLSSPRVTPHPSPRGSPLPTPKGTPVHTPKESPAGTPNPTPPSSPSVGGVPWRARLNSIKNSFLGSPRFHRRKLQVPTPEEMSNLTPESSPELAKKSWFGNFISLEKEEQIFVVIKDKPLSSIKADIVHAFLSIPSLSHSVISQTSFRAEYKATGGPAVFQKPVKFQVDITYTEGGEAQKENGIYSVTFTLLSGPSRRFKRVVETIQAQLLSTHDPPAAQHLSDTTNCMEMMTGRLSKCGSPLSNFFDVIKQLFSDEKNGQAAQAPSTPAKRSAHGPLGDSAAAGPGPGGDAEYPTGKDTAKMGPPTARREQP

Structure (SMILES) | residual activity [%]
COc1cc2c(cc1OC)-c1[nH]nc(Nc3cccc(F)c3)c1C2 | 92.1
O=c1c(-c2ccc(F)cc2)c(-c2ccncc2)[nH]n1-c1ccc(Cl)cc1 | 90.8
Cn1cc(/C=C2\C(=O)Nc3ccc(S(N)(=O)=O)cc32)c2ccccc21 | 65.5
COc1cccc(-c2cc(=O)c3ccccc3o2)c1N | 98

Each compound was assayed against BTK (human) (UniProt Q06187) in the same assay as above. Details: compound 0.5 µM; ATP 10 µM.

Structure (SMILES) | residual activity [%]
COc1cc2c(cc1OC)-c1[nH]nc(Nc3cccc(F)c3)c1C2 | 40.8
O=c1c(-c2ccc(F)cc2)c(-c2ccncc2)[nH]n1-c1ccc(Cl)cc1 | 83.6
Cn1cc(/C=C2\C(=O)Nc3ccc(S(N)(=O)=O)cc32)c2ccccc21 | 30.4
COc1cccc(-c2cc(=O)c3ccccc3o2)c1N | 83.7

What follows are compounds tested against CAMK1G (human) (UniProt Q96NX5) in the same assay as above. Details: compound 0.5 µM; ATP 10 µM.

Structure (SMILES) | residual activity [%]
COc1cc2c(cc1OC)-c1[nH]nc(Nc3cccc(F)c3)c1C2 | 101
O=c1c(-c2ccc(F)cc2)c(-c2ccncc2)[nH]n1-c1ccc(Cl)cc1 | 104
Cn1cc(/C=C2\C(=O)Nc3ccc(S(N)(=O)=O)cc32)c2ccccc21 | 89.2
COc1cccc(-c2cc(=O)c3ccccc3o2)c1N | 96.5

These compounds were tested against CAMK2A (human) (UniProt Q9UQM7) in the same assay as above. Details: compound 0.5 µM; ATP 10 µM.
Sequence of CAMK2A (human) (Q9UQM7 whole entry, looked up): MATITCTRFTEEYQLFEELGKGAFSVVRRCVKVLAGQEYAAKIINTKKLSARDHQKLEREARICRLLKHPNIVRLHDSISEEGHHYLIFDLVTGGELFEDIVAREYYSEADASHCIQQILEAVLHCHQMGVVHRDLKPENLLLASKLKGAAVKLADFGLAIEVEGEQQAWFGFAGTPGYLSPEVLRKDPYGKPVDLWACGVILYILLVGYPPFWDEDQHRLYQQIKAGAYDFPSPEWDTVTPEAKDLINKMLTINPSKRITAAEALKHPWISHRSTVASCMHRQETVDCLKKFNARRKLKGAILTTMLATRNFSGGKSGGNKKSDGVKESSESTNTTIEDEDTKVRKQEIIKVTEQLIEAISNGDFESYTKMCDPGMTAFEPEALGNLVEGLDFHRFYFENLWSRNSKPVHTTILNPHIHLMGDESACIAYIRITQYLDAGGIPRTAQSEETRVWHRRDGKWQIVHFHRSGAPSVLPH

Structure (SMILES) | residual activity [%]
COc1cc2c(cc1OC)-c1[nH]nc(Nc3cccc(F)c3)c1C2 | 95.6
O=c1c(-c2ccc(F)cc2)c(-c2ccncc2)[nH]n1-c1ccc(Cl)cc1 | 86.9
Cn1cc(/C=C2\C(=O)Nc3ccc(S(N)(=O)=O)cc32)c2ccccc21 | 57.6
COc1cccc(-c2cc(=O)c3ccccc3o2)c1N | 93.6

The compounds below were run against CAMK2B (human) (UniProt Q13554) in the same assay as above. Details: compound 0.5 µM; ATP 10 µM.

Structure (SMILES) | residual activity [%]
COc1cc2c(cc1OC)-c1[nH]nc(Nc3cccc(F)c3)c1C2 | 101
O=c1c(-c2ccc(F)cc2)c(-c2ccncc2)[nH]n1-c1ccc(Cl)cc1 | 93.7
Cn1cc(/C=C2\C(=O)Nc3ccc(S(N)(=O)=O)cc32)c2ccccc21 | 86.5
COc1cccc(-c2cc(=O)c3ccccc3o2)c1N | 103

These compounds were tested against CAMK2D (human) (UniProt Q13557) in the same assay as above. Details: compound 0.5 µM; ATP 10 µM.

Structure (SMILES) | residual activity [%]
COc1cc2c(cc1OC)-c1[nH]nc(Nc3cccc(F)c3)c1C2 | 103
O=c1c(-c2ccc(F)cc2)c(-c2ccncc2)[nH]n1-c1ccc(Cl)cc1 | 95.6
Cn1cc(/C=C2\C(=O)Nc3ccc(S(N)(=O)=O)cc32)c2ccccc21 | 66.8
COc1cccc(-c2cc(=O)c3ccccc3o2)c1N | 91.5

What follows are compounds tested against CAMK2G (human) (UniProt Q13555) in the same assay as above. Details: compound 0.5 µM; ATP 10 µM.

Structure (SMILES) | residual activity [%]
COc1cc2c(cc1OC)-c1[nH]nc(Nc3cccc(F)c3)c1C2 | 101
O=c1c(-c2ccc(F)cc2)c(-c2ccncc2)[nH]n1-c1ccc(Cl)cc1 | 109
Cn1cc(/C=C2\C(=O)Nc3ccc(S(N)(=O)=O)cc32)c2ccccc21 | 91.9
COc1cccc(-c2cc(=O)c3ccccc3o2)c1N | 96.6

Each compound was assayed against CDK3 CCNE1 (human) (UniProt Q00526+P24864) in the same assay as above. Details: compound 0.5 µM; ATP 10 µM.

Structure (SMILES) | residual activity [%]
COc1cc2c(cc1OC)-c1[nH]nc(Nc3cccc(F)c3)c1C2 | 95.4
O=c1c(-c2ccc(F)cc2)c(-c2ccncc2)[nH]n1-c1ccc(Cl)cc1 | 86.9
Cn1cc(/C=C2\C(=O)Nc3ccc(S(N)(=O)=O)cc32)c2ccccc21 | 90.3
COc1cccc(-c2cc(=O)c3ccccc3o2)c1N | 109

Each compound was assayed against CDK4 CCND1 (human) (UniProt P24385+P11802) in the same assay as above. Details: compound 0.5 µM; ATP 10 µM.
Sequence of CDK4 CCND1 (human) (P11802 whole entry, looked up): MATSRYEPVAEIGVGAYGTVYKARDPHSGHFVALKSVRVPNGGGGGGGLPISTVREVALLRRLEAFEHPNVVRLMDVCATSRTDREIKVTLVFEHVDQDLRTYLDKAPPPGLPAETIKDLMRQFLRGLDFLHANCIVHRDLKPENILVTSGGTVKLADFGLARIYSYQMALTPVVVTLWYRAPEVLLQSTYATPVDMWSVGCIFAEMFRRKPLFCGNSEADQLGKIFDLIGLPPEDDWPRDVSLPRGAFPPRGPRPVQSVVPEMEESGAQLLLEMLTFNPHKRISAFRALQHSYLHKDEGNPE
Sequence of CDK4 CCND1 (human) (P24385 whole entry, looked up): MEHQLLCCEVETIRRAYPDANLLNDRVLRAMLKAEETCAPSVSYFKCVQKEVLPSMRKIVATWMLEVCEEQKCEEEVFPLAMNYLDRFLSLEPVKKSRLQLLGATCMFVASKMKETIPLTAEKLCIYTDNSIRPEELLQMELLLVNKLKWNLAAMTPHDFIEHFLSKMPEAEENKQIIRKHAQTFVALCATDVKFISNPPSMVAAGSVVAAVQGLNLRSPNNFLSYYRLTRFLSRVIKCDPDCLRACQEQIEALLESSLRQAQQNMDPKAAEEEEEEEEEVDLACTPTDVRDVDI

Structure (SMILES) | residual activity [%]
COc1cc2c(cc1OC)-c1[nH]nc(Nc3cccc(F)c3)c1C2 | 93.9
O=c1c(-c2ccc(F)cc2)c(-c2ccncc2)[nH]n1-c1ccc(Cl)cc1 | 102
Cn1cc(/C=C2\C(=O)Nc3ccc(S(N)(=O)=O)cc32)c2ccccc21 | 106
COc1cccc(-c2cc(=O)c3ccccc3o2)c1N | 100

These compounds were tested against CDK5 CDK5R1 p25 (human) (UniProt Q00535+Q15078) in the same assay as above. Details: compound 0.5 µM; ATP 10 µM.
Sequence of CDK5 CDK5R1 p25 (human) (Q00535 whole entry, looked up): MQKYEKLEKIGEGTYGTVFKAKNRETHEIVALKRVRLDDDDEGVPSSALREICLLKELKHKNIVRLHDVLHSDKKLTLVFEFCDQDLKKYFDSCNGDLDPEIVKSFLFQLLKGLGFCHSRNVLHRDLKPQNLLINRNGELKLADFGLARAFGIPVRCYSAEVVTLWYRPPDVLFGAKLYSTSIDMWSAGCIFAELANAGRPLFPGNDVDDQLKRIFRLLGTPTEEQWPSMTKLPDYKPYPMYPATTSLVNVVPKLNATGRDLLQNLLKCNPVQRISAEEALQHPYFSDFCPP
Sequence of CDK5 CDK5R1 p25 (human) (Q15078 whole entry, looked up): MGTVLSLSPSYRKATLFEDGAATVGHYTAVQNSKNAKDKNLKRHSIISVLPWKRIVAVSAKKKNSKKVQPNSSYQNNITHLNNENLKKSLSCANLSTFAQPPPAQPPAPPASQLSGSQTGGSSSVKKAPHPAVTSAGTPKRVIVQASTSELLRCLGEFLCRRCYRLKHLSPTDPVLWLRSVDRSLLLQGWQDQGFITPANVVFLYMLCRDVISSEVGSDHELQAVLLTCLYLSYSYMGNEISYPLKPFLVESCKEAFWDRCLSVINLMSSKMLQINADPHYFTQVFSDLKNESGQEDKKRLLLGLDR

Structure (SMILES) | residual activity [%]
COc1cc2c(cc1OC)-c1[nH]nc(Nc3cccc(F)c3)c1C2 | 89
O=c1c(-c2ccc(F)cc2)c(-c2ccncc2)[nH]n1-c1ccc(Cl)cc1 | 76.3
Cn1cc(/C=C2\C(=O)Nc3ccc(S(N)(=O)=O)cc32)c2ccccc21 | 58
COc1cccc(-c2cc(=O)c3ccccc3o2)c1N | 87.5

What follows are compounds tested against CDK6 CCND3 (human) (UniProt P30281+Q00534) in the same assay as above. Details: compound 0.5 µM; ATP 10 µM.

Structure (SMILES) | residual activity [%]
COc1cc2c(cc1OC)-c1[nH]nc(Nc3cccc(F)c3)c1C2 | 99.5
O=c1c(-c2ccc(F)cc2)c(-c2ccncc2)[nH]n1-c1ccc(Cl)cc1 | 93.7
Cn1cc(/C=C2\C(=O)Nc3ccc(S(N)(=O)=O)cc32)c2ccccc21 | 81.4
COc1cccc(-c2cc(=O)c3ccccc3o2)c1N | 99.3

What follows are compounds tested against CLK1 (human) (UniProt P49759) in the same assay as above. Details: compound 0.5 µM; ATP 10 µM.

Structure (SMILES) | residual activity [%]
COc1cc2c(cc1OC)-c1[nH]nc(Nc3cccc(F)c3)c1C2 | 102
O=c1c(-c2ccc(F)cc2)c(-c2ccncc2)[nH]n1-c1ccc(Cl)cc1 | 97
Cn1cc(/C=C2\C(=O)Nc3ccc(S(N)(=O)=O)cc32)c2ccccc21 | 88.3
COc1cccc(-c2cc(=O)c3ccccc3o2)c1N | 97.7

What follows are compounds tested against DCLK2 (human) (UniProt Q8N568) in the same assay as above. Details: compound 0.5 µM; ATP 10 µM.

Structure (SMILES) | residual activity [%]
COc1cc2c(cc1OC)-c1[nH]nc(Nc3cccc(F)c3)c1C2 | 88.2
O=c1c(-c2ccc(F)cc2)c(-c2ccncc2)[nH]n1-c1ccc(Cl)cc1 | 99.9
Cn1cc(/C=C2\C(=O)Nc3ccc(S(N)(=O)=O)cc32)c2ccccc21 | 93.2
COc1cccc(-c2cc(=O)c3ccccc3o2)c1N | 88.3

What follows are compounds tested against EPHB4 (human) (UniProt P54760) in the same assay as above. Details: compound 0.5 µM; ATP 10 µM.

Structure (SMILES) | residual activity [%]
COc1cc2c(cc1OC)-c1[nH]nc(Nc3cccc(F)c3)c1C2 | 95.3
O=c1c(-c2ccc(F)cc2)c(-c2ccncc2)[nH]n1-c1ccc(Cl)cc1 | 97.2
Cn1cc(/C=C2\C(=O)Nc3ccc(S(N)(=O)=O)cc32)c2ccccc21 | 57.4
COc1cccc(-c2cc(=O)c3ccccc3o2)c1N | 101

Each compound was assayed against FLT1 (human) (UniProt P17948) in the same assay as above. Details: compound 0.5 µM; ATP 10 µM.
Sequence of FLT1 (human) (P17948 whole entry, looked up): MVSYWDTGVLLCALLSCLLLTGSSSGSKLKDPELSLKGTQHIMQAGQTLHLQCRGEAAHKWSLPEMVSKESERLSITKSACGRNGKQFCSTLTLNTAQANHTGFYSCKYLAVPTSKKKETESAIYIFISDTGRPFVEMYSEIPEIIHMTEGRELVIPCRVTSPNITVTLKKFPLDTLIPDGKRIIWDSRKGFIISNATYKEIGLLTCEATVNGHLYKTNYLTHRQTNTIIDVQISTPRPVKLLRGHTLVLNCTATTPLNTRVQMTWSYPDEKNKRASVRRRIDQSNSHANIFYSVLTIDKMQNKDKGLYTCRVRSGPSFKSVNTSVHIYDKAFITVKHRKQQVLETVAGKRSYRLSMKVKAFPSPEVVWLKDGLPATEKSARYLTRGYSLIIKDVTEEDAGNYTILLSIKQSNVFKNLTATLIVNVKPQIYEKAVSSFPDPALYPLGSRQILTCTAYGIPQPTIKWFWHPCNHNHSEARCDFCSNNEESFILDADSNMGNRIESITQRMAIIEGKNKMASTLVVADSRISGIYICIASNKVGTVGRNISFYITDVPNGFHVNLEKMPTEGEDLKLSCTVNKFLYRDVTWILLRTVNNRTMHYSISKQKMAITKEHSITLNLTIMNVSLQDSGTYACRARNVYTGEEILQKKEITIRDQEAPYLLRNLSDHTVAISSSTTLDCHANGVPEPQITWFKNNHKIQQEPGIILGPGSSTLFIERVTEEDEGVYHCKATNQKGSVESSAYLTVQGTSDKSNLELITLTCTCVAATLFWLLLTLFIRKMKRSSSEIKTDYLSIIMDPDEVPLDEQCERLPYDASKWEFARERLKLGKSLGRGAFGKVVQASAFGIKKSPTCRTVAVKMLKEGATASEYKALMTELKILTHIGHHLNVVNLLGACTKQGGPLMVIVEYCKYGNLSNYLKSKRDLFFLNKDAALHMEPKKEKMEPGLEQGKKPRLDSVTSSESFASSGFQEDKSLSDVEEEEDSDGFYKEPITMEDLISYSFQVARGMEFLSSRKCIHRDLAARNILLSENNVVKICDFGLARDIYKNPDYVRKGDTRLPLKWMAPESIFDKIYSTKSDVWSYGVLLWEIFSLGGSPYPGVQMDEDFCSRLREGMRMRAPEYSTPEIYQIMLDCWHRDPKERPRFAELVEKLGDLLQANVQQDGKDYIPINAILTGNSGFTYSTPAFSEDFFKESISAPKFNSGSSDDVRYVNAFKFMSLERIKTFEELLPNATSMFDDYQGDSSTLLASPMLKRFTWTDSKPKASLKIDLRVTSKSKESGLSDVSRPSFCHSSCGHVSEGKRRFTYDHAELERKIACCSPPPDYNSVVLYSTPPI

Structure (SMILES) | residual activity [%]
COc1cc2c(cc1OC)-c1[nH]nc(Nc3cccc(F)c3)c1C2 | 82.6
O=c1c(-c2ccc(F)cc2)c(-c2ccncc2)[nH]n1-c1ccc(Cl)cc1 | 81.3
Cn1cc(/C=C2\C(=O)Nc3ccc(S(N)(=O)=O)cc32)c2ccccc21 | 70.1
COc1cccc(-c2cc(=O)c3ccccc3o2)c1N | 87.7

The compounds below were run against GSG2 (human) (UniProt Q8TF76) in the same assay as above. Details: compound 0.5 µM; ATP 10 µM.

Structure (SMILES) | residual activity [%]
COc1cc2c(cc1OC)-c1[nH]nc(Nc3cccc(F)c3)c1C2 | 84.8
O=c1c(-c2ccc(F)cc2)c(-c2ccncc2)[nH]n1-c1ccc(Cl)cc1 | 96.5
Cn1cc(/C=C2\C(=O)Nc3ccc(S(N)(=O)=O)cc32)c2ccccc21 | 93.1
COc1cccc(-c2cc(=O)c3ccccc3o2)c1N | 95.7

These compounds were tested against HCK (human) (UniProt P08631) in the same assay as above. Details: compound 0.5 µM; ATP 10 µM.

Structure (SMILES) | residual activity [%]
COc1cc2c(cc1OC)-c1[nH]nc(Nc3cccc(F)c3)c1C2 | 61.9
O=c1c(-c2ccc(F)cc2)c(-c2ccncc2)[nH]n1-c1ccc(Cl)cc1 | 91.1
Cn1cc(/C=C2\C(=O)Nc3ccc(S(N)(=O)=O)cc32)c2ccccc21 | 50
COc1cccc(-c2cc(=O)c3ccccc3o2)c1N | 91.6

Each compound was assayed against JAK1 JH1 catalytic (human) (UniProt P23458) in the same assay as above. Details: compound 0.5 µM; ATP 10 µM.

Structure (SMILES) | residual activity [%]
COc1cc2c(cc1OC)-c1[nH]nc(Nc3cccc(F)c3)c1C2 | 97.6
O=c1c(-c2ccc(F)cc2)c(-c2ccncc2)[nH]n1-c1ccc(Cl)cc1 | 103
Cn1cc(/C=C2\C(=O)Nc3ccc(S(N)(=O)=O)cc32)c2ccccc21 | 83.9
COc1cccc(-c2cc(=O)c3ccccc3o2)c1N | 98.9

What follows are compounds tested against LTK (human) (UniProt P29376) in the same assay as above. Details: compound 0.5 µM; ATP 10 µM.
Sequence of LTK (human) (P29376 whole entry, looked up): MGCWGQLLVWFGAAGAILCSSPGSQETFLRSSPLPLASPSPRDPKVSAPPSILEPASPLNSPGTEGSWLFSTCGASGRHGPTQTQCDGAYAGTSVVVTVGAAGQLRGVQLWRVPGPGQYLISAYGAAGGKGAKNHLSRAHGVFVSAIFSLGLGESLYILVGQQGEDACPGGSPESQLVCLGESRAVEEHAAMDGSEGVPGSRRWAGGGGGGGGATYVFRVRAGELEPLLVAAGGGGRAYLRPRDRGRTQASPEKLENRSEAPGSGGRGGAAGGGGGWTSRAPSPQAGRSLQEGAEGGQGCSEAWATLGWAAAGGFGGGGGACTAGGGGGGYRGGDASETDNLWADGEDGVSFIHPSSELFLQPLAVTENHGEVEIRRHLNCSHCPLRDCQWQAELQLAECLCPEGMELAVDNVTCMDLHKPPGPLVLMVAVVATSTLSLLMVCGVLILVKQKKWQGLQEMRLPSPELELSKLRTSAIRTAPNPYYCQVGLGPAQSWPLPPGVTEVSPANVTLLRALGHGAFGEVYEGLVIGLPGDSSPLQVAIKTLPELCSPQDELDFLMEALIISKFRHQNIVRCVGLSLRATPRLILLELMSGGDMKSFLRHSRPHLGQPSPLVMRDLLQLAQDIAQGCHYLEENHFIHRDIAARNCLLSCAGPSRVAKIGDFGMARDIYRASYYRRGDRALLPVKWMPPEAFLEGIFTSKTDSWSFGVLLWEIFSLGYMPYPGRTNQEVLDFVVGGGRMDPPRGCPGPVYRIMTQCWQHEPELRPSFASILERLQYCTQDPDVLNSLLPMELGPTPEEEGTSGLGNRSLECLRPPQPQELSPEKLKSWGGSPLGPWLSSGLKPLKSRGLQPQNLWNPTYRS

Structure (SMILES) | residual activity [%]
COc1cc2c(cc1OC)-c1[nH]nc(Nc3cccc(F)c3)c1C2 | 93.3
O=c1c(-c2ccc(F)cc2)c(-c2ccncc2)[nH]n1-c1ccc(Cl)cc1 | 75.5
Cn1cc(/C=C2\C(=O)Nc3ccc(S(N)(=O)=O)cc32)c2ccccc21 | 54.5
COc1cccc(-c2cc(=O)c3ccccc3o2)c1N | 75.4

What follows are compounds tested against MAP3K10 (human) (UniProt Q02779) in the same assay as above. Details: compound 0.5 µM; ATP 10 µM.

Structure (SMILES) | residual activity [%]
COc1cc2c(cc1OC)-c1[nH]nc(Nc3cccc(F)c3)c1C2 | 87.1
O=c1c(-c2ccc(F)cc2)c(-c2ccncc2)[nH]n1-c1ccc(Cl)cc1 | 88.1
Cn1cc(/C=C2\C(=O)Nc3ccc(S(N)(=O)=O)cc32)c2ccccc21 | 95.9
COc1cccc(-c2cc(=O)c3ccccc3o2)c1N | 90

What follows are compounds tested against MAP3K11 (human) (UniProt Q16584) in the same assay as above. Details: compound 0.5 µM; ATP 10 µM.

Structure (SMILES) | residual activity [%]
COc1cc2c(cc1OC)-c1[nH]nc(Nc3cccc(F)c3)c1C2 | 93.9
O=c1c(-c2ccc(F)cc2)c(-c2ccncc2)[nH]n1-c1ccc(Cl)cc1 | 98
Cn1cc(/C=C2\C(=O)Nc3ccc(S(N)(=O)=O)cc32)c2ccccc21 | 9.89
COc1cccc(-c2cc(=O)c3ccccc3o2)c1N | 95.9
